From paper PMC4251066, “Polyyne Hybrid Compounds from Notopterygium incisum with Peroxisome Proliferator-Activated Receptor Gamma Agonistic Effects” (Journal of Natural Products, 2014)
One block for each molecule: values may come before it.

Experiments:
[1] = Stability on exposure to heat or sunlight (observed color change); format: physicochemical; details: elevated temperatures (45 °C) or direct sunlight at ambient temperature for an extended time; visible color change
[2] = tested on: NO production in LPS/IFNγ-stimulated RAW 264.7 macrophages; assay: Inhibition of NO production in stimulated RAW 264.7 macrophages (Griess assay); format: cell-based; details: Mus musculus, RAW264.7, 16 h incubation
Protocol: RAW 264.7 macrophages were stimulated with lipopolysaccharides (LPS) and interferon-γ (IFNγ) for induction of iNOS gene expression. The effects on NO production were determined by photometric quantification of nitrite accumulation in cell culture supernatants using the Griess assay compared with a sodium nitrite standard curve after 16 h of incubation with the respective sample as described by Baer et al. with slight modifications.[29],[30] Activity is referred to nitrite accumulation of cells treated with LPS/IFN-γ/DMSO (final concentration of 0.1% DMSO serves as solvent control). Test compounds were first dissolved in DMSO and then diluted with PBS to obtain respective concentrations. L-NMMA (N-monomethyl-L-arginine), a known nonselective inhibitor of all NOS isoforms, was used as a positive control. IC50 determination was performed in eight concentrations, each in at least three independent experiments, every time in duplicate.
IC50 values for effects on NO production were calculated with the SigmaPlot program package employing the four-parameter logistic regression model. Statistical differences were evaluated using one-way ANOVA. Differences with a p value < 0.05 were considered significant.

human PPARγ = target: T1, human PPARγ (Homo sapiens, UniProt P37231); assay: PPARγ luciferase reporter gene transactivation in HEK-293 cells; details: PPARγ-driven luciferase reporter assay, 18 h
T1 sequence (P37231 1-477 isoform P37231-2): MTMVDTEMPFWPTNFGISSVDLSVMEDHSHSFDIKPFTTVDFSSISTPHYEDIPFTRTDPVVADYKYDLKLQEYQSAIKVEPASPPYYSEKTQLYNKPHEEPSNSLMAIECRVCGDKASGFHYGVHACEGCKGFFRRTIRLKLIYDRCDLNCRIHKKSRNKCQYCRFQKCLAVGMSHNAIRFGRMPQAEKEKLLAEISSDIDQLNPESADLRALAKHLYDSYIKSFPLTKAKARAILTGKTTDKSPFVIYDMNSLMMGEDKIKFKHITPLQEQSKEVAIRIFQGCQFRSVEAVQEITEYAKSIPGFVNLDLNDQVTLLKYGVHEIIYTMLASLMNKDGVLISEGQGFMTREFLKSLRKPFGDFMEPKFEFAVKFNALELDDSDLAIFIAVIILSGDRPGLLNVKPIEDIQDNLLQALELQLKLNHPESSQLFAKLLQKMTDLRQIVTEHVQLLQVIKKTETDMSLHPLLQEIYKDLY
Protocol: For evaluation of PPARγ activation the test compounds were first dissolved in DMSO, divided into aliquots, and frozen at −20 °C until used. In all experiments, DMSO was applied as solvent control, and the final concentration of DMSO was always kept at ≤0.1%. The PPAR luciferase reporter plasmid (tk-PPREx3-luc) was a kind gift from Prof. Ronald M. Evans (Howard Hughes Medical Institute, La Jolla, CA, USA), the plasmid encoding enhanced green fluorescent protein (pEGFP-N1) was supplied by Clontech (Mountain View, CA, USA), and the plasmid encoding human PPARγ (pSG5-PL-hPPAR-γ1) was kindly supplied by Prof. Walter Wahli and Prof. Beatrice Desvergne (Center for Integrative Genomics, University of Lausanne, Switzerland).
The PPARγ luciferase reporter gene assay was performed as previously described.[27] Briefly, HEK-293 cells (ATCC, Manassas, VA, USA) were grown in DMEM with 2 mM glutamine, 10% FBS, 100 U/mL benzylpenicillin, and 100 μg/mL streptomycin. Cells were grown in 10 cm dishes (6 × 10^6 cells/dish) for 18 h and then transfected by the calcium phosphate precipitation method with 4 μg of plasmid encoding human PPARγ (pSG5-PL-hPPAR-γ1), 4 μg of reporter plasmid (tk-PPREx3-luc), and 2 μg of pEGFP-N1 as control for internal normalization.[28] After 6 h, the cells were transferred to 96-well plates (5 × 10^4 cells/well) in DMEM without phenol red supplemented with charcoal-stripped FBS, glutamine, and antibiotics. The cells were treated with different concentrations of the indicated compounds and incubated for 18 h. Cells were then lysed, and the luminescence of the firefly luciferase and the fluorescence of EGFP were quantified with a GeniosPro microplate reader (Tecan, Grödig, Austria). The luminescence was finally normalized to the EGFP-derived fluorescence from each well to account for differences in transfection efficiency or cell number.
Nonlinear regression (with sigmoidal dose response) was used to calculate the EC50 values and maximal fold activation.

SMILES: C=C[C@@H](O)C#CC#C[C@H](/C=C\CCCCCCC)OC(=O)/C=C/c1ccc(O)c(OC)c1 [compound 9, Notoincisol A]
- stability [1]: unstable
- IC50 [2]: 14.6 ± 0.7 µM
- EC50 (human PPARγ): 2.3 µM

SMILES: C=C[C@H](C#CC#C[C@@H](O)/C=C\CCCCCCC)O[C@]1(C)CCC[C@]2(C)CC[C@@H](C(C)(C)O)C[C@H]21 [compound 1, Notoether A]
- EC50 (human PPARγ): 1.9 µM
- maximal fold activation (human PPARγ): 1.6

SMILES: C=C[C@H](C#CC#C[C@@H](O)/C=C\CCCCCCC)O[C@]1(C)CC[C@@H](O)[C@]2(C)CC[C@@H](C(C)C)[C@@H](O)[C@H]21 [compound 3, Notoether C]
- EC50 (human PPARγ): 2 µM
- maximal fold activation (human PPARγ): 1.6

- EC50 (human PPARγ): 1.7 µM
- maximal fold activation (human PPARγ): 2.3
SMILES: C=C[C@H]1OCc2cc3cc(OC)c(O)cc3c(C#C[C@@H](O)/C=C\CCCCCCC)c21 [compound 10, Notoincisol B]

SMILES: C=C[C@@H](O)C#CC#C[C@H](/C=C\CCCCCCC)O[C@]1(C)CCC[C@]2(C)CC[C@@H](C(C)(C)O)C[C@H]21 [compound 2, Notoether B]
- EC50 (human PPARγ): 1.7 µM
- maximal fold activation (human PPARγ): 2.0
